In this assay the test system is T-47D. The assay can be described thus: Caspase cascade activation in T-47D solid tumor cells (fluorogenic N-(Ac-DEVD)-N'-ethoxycarbonyl-R110 substrate). Particulars: T-47D (24 hr); for EC50: Homo sapiens, T47D, read-out: Caspase Potency EC50; for Caspase Activity Ratio: ratio of net RFU of test compound to that of control samples. The assay is classed as cell-based, Human. Here is the method:
Human breast cancer cell lines T-47D and DLD-1 were grown according to media component mixtures designated by American Type Culture Collection+10% FCS (Invitrogen Corporation), in a 5% CO2-95% humidity incubator at 37° C. T-47D and DLD-1 cells were maintained at a cell density between 50 and 80% confluency at a cell density of 0.1 to 0.6×10^6 cells/mL. Cells were harvested at 600×g and resuspended at 0.65×10^6 cells/mL into appropriate media+10% FCS. An aliquot of 22.5 μL of cells was added to a well of a 384-well microtiter plate containing 2.5 μL of a 10% DMSO in RPMI-1640 media solution containing 0.16 to 100 μM of (2-chloro-quinazolin-4-yl)-(4-dimethylaminophenyl)-methylamine or other test compound (0.016 to 10 μM final). An aliquot of 22.5 μL of cells was added to a well of a 384-well microtiter plate containing 2.5 μL of a 10% DMSO in RPMI-1640 media solution without test compound as the control sample. […] After incubation, the samples were removed from the incubator and 25 μL of a solution containing 14 μM of N-(Ac-DEVD)-N′-ethoxycarbonyl-R110 fluorogenic substrate (Cytovia, Inc.; WO99/18856), 20% sucrose (Sigma), 20 mM DTT (Sigma), 200 mM NaCl (Sigma), 40 mM Na PIPES buffer pH 7.2 (Sigma), and 500 μg/mL lysolecithin (Calbiochem) was added. The samples were mixed by agitation and incubated at room temperature. Using a fluorescent plate reader (Model SPECTRAfluor Plus, Tecan), an initial reading (T=0) was made approximately 1-2 min after addition of the substrate solution, employing excitation at 485 nm and emission at 530 nm, to determine the background fluorescence of the control sample. After the 3 h incubation, the samples were read for fluorescence as above (T=3 h).
The Relative Fluorescence Unit values (RFU) were used to calculate the sample readings as follows: RFU(T=3h)−Control RFU(T=0)=Net RFU(T=3h)
The activity of caspase cascade activation was determined by the ratio of the net RFU value for (2-chloro-quinazolin-4-yl)-(4-dimethylaminophenyl)-methylamine or other test compounds to that of control samples. The EC50 (nM) was determined by a sigmoidal dose-response calculation (Prism 3.0, GraphPad Software Inc.).

Turning to `COC(=O)Nc1ccc2nc(C)nc(N(C)c3ccc(OC)cc3)c2c1` [Example 33, (6-methoxycarbonylamino-2-methyl-quinazolin-4-yl)-(4-methoxy-phenyl)-methylamine], the EC50 (usually the concentration that produces a half-maximal response) was found to be 293 nM and the “Caspase Activity Ratio” value was determined as 6.7.
Consider `COc1ccc(Nc2nc(C)nc3ccc([N+](=O)[O-])cc23)cc1OC` [Example 34, (3,4-Dimethoxy-phenyl)-(2-methyl-6-nitro-quinazolin-4-yl)-amine], for which the EC50 was more than 10000 nM and the “Caspase Activity Ratio” value is on record as 1.1.
For `COc1ccc(Nc2ncnc3ccccc23)cc1OC` [Example 35, (3,4-Dimethoxy-phenyl)-(quinazolin-4-yl)-amine], the EC50 was more than 10000 nM and the “Caspase Activity Ratio” value was determined as 1.0.
For `COc1ccc(N(C)c2nc(C)nc3ccc([N+](=O)[O-])cc23)cc1OC` [Example 36, (3,4-Dimethoxy-phenyl)-(2-methyl-6-nitro-quinazolin-4-yl)-methylamine] the same measures were 1870 nM and 4.0.
As for `COc1cc(Nc2nc(C)nc3ccccc23)cc(OC)c1OC` [Example 38, (2-Methyl-quinazolin-4-yl)-(3,4,5-trimethoxy-phenyl)-amine], the EC50 is more than 10000 nM and the “Caspase Activity Ratio” value worked out at 0.9.
In the same order, the values of `COc1ccc(N(C)c2nc(C)nc3ccc(N(C)C(C)=O)cc23)cc1` [Example 40, (6-N-methyl-acetamido-2-methyl-quinazolin-4-yl)-(4-methoxy-phenyl)-methylamine] are 290 nM and 2.7.
In the same order, the values of `COc1ccc(N(C)c2nc(NC(C)=O)nc3ccccc23)cc1` [Example 41, (2-Acetamido-quinazolin-4-yl)-(4-methoxy-phenyl)-methylamine] are 27 nM and 3.5.

These data come from patent US7989462B2, “4-arylamin-or-4-heteroarylamino-quinazolines and analogs as activators of caspases and inducers of apoptosis and the use thereof” (Myrexis, Inc., priority 2003, dated 2011).
